The values that follow come from patent US9504676B2, “Molecules inhibiting a metabolic pathway involving the Syk protein tyrosine kinase and method for identifying said molecules” (CENTRE NATIONAL DE LA RECHERCHE SCIENTIFIQUE, priority 2008, dated 2016).

The target in assay [1] is T1, murine Syk tyrosine kinase protein (GST:Syk 6-242) (Mus musculus, UniProt P48025).
T1 construct: made in house
The experiment in a line: ADA method: displacement of the binding of scFv G4G11 with Syk (ELISA). Conditions: read-out: In vit. inhib.: mean inhibition % of the binding of scFv G4G11 with Syk in the ADA method. The text has this: The term “percentage of inhibition” of the binding of an antibody or antibody fragment with Syk protein, particularly refers to the ratio […], where A consists of the intensity of a signal proportional to the quantity of an antibody or antibody fragment bound with Syk protein in the absence of a molecule according to the invention and B the intensity of the same signal in the presence of a molecule according to the invention under the same conditions. […] This test may be performed for example according to the protocol described in example 3-2) hereinafter.
The inventors developed the ADA (Antigen Displacement Assay) method to identify small molecules capable of displacing the association with scFv G4G11 with Syk. […] To understand the mode of action of C-13, the inventors firstly identified the binding site of G4G11 using the SPOT method^16. An epitope located on the N-terminal SH2 domain of Syk, comprising amino acids 65-74 and 100% preserved in mouse, rat and human sequences, was identified.
The ADA method was then applied to each of these […] molecules to measure the ability thereof to inhibit the binding of scFv G4G11 with Syk.
(§1) • 1) Chemical products and antibodies. A chemical bank of 3000 molecules (a varied subset) was acquired from ChemBridge, Inc. (San Diego, Calif.). Stocks of solutions of small molecules were prepared at a rate of 10 mM in DMSO (dimethylsulphoxide), except for C-13 (methyl 2-{5-[(3-benzyl-4-oxo-2-thioxo-1,3-thiazolidin-5-ylidene)methyl]-2-furyl}benzoate, ChemBridge ID No. 6197026) prepared in DMF (dimethylformamide). Unless specified otherwise, all the reagents were supplied by Sigma. Dinitrophenyl (DNP) hapten was acquired from Calbiochem. Sepharose GammaBind G and all the secondary antibodies were supplied by GE Health Amersham Biosciences. The anti-Syk, anti-Lyn, anti-Btk, anti-PLC-γ1, anti-PLC-γ2, anti-LAT, anti-SLP-76, anti-p38, anti-JNK, anti-Vav, anti-Akt1 and 9E10 antibodies conjugated with HRP were acquired from Santa Cruz Biotechnology. The anti-phospho-p44/42 MAP Kinase, anti-p44/42 MAP Kinase, anti-phospho-p38, anti-phospho-JNK, anti-phospho-Akt1 antibodies were acquired from Cell Signaling. The anti-phospho-LAT and anti-phospho-PLC-γ1 antibodies were supplied by Biosource and the anti-phospho-SLP-76 antibodies by BD Pharmingen. The 4G10 anti-phosphotyrosine monoclonal antibody was acquired from Upstate Biotechnology. • 2) ADA method: ELISA type high-speed molecule screening test, based on antibody displacement (WO 2005106481). The recombinant fusion protein GST:Syk 6-242^8 comprising the residues 6 to 242 of murine Syk tyrosine kinase protein illustrated in FIG. 8B (SEQ ID No. 4) was immobilised on an ELISA plate at a final concentration of 10 μg ml^−1. For the screening of the chemical molecule bank, the small molecules, diluted in PBS at a final concentration of 10 μM were added to the wells for one hour at ambient temperature, before adding the fragment scFv G4G11 at a final concentration of 100 nM for an additional hour. The binding of G4G11 with Syk was assessed by adding the 9E10 monoclonal antibody conjugated with HRP detecting the amino acid sequence EQKLISEEDLN of human c-myc protein located at the C-terminal end of the scFv fragment. To generate Syk mutants, targeted mutagenesis was used on GST:Syk 6-242 protein and the binding of G4G11 with the mutants was assessed in the presence of 5 μM of C-13. • 3) Cells, culture conditions and functional tests. Anti-DNP 2682-I mouse monoclonal antibody was used as the culture supernatant of hybridomas containing 1 μg/ml of IgE. Femoral bone marrow cells were sampled and cultured in Opti-MEM medium (Gibco) supplemented with 10% foetal calf serum and 4% X63 transfectant supernatant secreting murine IL-3. RBL-2H3 (ATCC) leukaemic rat basophil cells were maintained in a single-layer culture in RPMI 1640 medium supplemented with 10% foetal calf serum (Gibco). […]

For assay [2], the system named is RBL-2H3 cells. The experiment in a line: cells. The assay is classed as cell-based, rat. Conditions: Rattus norvegicus. Here is the method:
These 87 molecules were also tested in vitro to assess the ability thereof to inhibit RBL-2H3 cell degranulation (see table 1).
as §1, with “(Gibco). Measurements of β-hexosaminidase released by the RBL-2H3 cells were performed as described previously^7, except that, after 12-16 hours of incubation with anti-DNP IgE (0.5 μg/ml), the cells were incubated for 90 min at 37° C. in RPMI medium supplemented with the specified concentrations of C-13 or DMF (0.25%). The cells were stimulated for 45 min with DNP-BSA (50 ng ml^−1) or ionomycin (1.5 μM). The BMMC cells were incubated for one hour at 37° C. with anti-DNP IgE (100 ng/ml). They were then incubated with C-13 (3 μM) or DMF (0.3%) for 3 hours at 37° C., and stimulated with varied concentrations of DNP-BSA. The level of β-hexosaminidase released was measured 10 min later and the TNF-α titration was performed by means of a cytotoxicity test on L929 cells as described previously^10, 3 hours after stimulation. The results illustrated in FIG. 3 are representative of three independent experiments. • 4) Immunoprecipitations, in vitro kinase assays and immunodetection.” for “(Gibco).”

[3] abbreviates: small molecules at 10 μM, scFv G4G11 100 nM.
The mark [4] stands for this setting: RBL-2H3 cells, read-out: Degran. IC50: concentration inhibiting mast cell degranulation by 50%.

≈ marks a conversion by molar mass, not a printed value. Like-named read-outs stand apart in the source and are kept apart here. Some results are limits rather than exact numbers.

By inhibition is commonly meant the share of the control response that was lost under treatment. Turning to `Cc1cc(C)cc(N(CC(=O)N2CCN(Cc3ccccc3)CC2)S(=O)(=O)c2ccccc2)c1` [Molecule 40, N-[2-(4-benzyl-1-piperazinyl)-2-oxoethyl]-N-(3,5-dimethylphenyl)benzenesulphonamide], the inhibition at 10 µM in assay [1] is 49.5%. In addition, the IC50 in assay [2] (RBL-2H3, read-out: Degran. IC50: concentration inhibiting mast cell degranulation by 50%) is over 10 µg/mL.
As for `Cc1ccc(C(=O)C(C)OC(=O)c2ccc3c(c2)C(=O)C(c2ccc(C)c(Cl)c2)C3=O)cc1` (centres unmarked) [Molecule 41], in assay [1] (setting [3]), the inhibition at 10 µM was 49.5%. Also, in assay [2] (setting [4]), the IC50 was over 10 µg/mL.
Consider `COc1ccc(C)cc1NC(=O)CN(c1ccc(C)cc1)S(=O)(=O)c1ccc(OC)c(OC)c1` [Molecule 42], for which, in assay [1] (setting [3]), the inhibition at 10 µM is 49%. The IC50 in assay [2] (setting [4]) is over 10 µg/mL.
On to `COc1ccc(OC)c(C2C(C(=O)c3ccc(F)cc3)=C(O)C(=O)N2CCCN2CCOCC2)c1` (centres unmarked) [Molecule 43, 5-(2,5-dimethoxyphenyl)-4-(4-fluorobenzoyl)-3-hydroxy-1-[3-(4-morpholinyl)propyl]-1,5-dihydro-2H-pyrrol-2-one], for which the inhibition at 10 µM in assay [1] (setting [3]) stood at 48.5%. For the same compound, the IC50 in assay [2] (setting [4]) was over 10 µg/mL.
Turning to `O=C(C1=C(O)C(=O)N(CCCN2CCOCC2)C1c1ccccc1F)c1ccc(Cl)cc1` (centres unmarked) [Molecule 44, 4-(4-chlorobenzoyl)-5-(2-fluorophenyl)-3-hydroxy-1-[3-(4-morpholinyl)propyl]-1,5-dihydro-2H-pyrrol-2-one], in assay [1] (setting [3]), the inhibition at 10 µM amounted to 48.5%. For the same compound, the IC50 in assay [2] (setting [4]) was over 10 µg/mL.
On the same counts, the results for `CC(C)c1ccc(C2C(C(=O)c3ccc(F)cc3)=C(O)C(=O)N2CCN2CCOCC2)cc1` (centres unmarked) [Molecule 45, 4-(4-fluorobenzoyl)-3-hydroxy-5-(4-isopropylphenyl)-1-[2-(4-morpholinyl)ethyl]-1,5-dihydro-2H-pyrrol-2-one] are 48.5% and over 10 µg/mL.
`Cn1c(SCC(=O)NCC2CCCO2)nnc1-c1ccc(NC(=O)c2ccccc2Cl)cc1` (centres unmarked) [Molecule 47]: the inhibition at 10 µM in assay [1] (setting [3]) was determined as 47.5%. Besides, the IC50 in assay [2] (setting [4]) was over 10 µg/mL.
Regarding `Cc1ccc(S(=O)(=O)N(CC(=O)N2CCN(Cc3ccccc3)CC2)c2ccc(C)c(C)c2)cc1` [Molecule 48, N-[2-(4-benzyl-1-piperazinyl)-2-oxoethyl]-N-(3,4-dimethylphenyl)-4-methylbenzenesulphonamide], in assay [1] (setting [3]), the inhibition at 10 µM came out at 47%. In assay [2] (setting [4]), the IC50 is over 10 µg/mL.
On the same counts, the results for `CN(C)CCCN1C(=O)C(O)=C(C(=O)c2ccc(S(=O)(=O)N(C)C)cc2)C1c1ccc(Cl)c(Cl)c1` (centres unmarked) [Molecule 50, 4-({2-(3,4-dichlorophenyl)-1-[3-(dimethylamino)propyl]-4-hydroxy-5-oxo-2,5-dihydro-1H-pyrrol-3-yl}carbonyl)-N,N-dimethylbenzenesulphonamide] are 46.5% and over 10 µg/mL.
Take `CCN(CC)CCCN1C(=O)C(O)=C(C(=O)c2ccc3c(c2)OCO3)C1c1cccnc1` (centres unmarked) [Molecule 51, 4-(1,3-benzodioxol-5-ylcarbonyl)-1-[3-(diethylamino)propyl]-3-hydroxy-5-(3-pyridinyl)-1,5-dihydro-2H-pyrrol-2-one]: the inhibition at 10 µM in assay [1] (setting [3]) was found to be 46%. The IC50 in assay [2] (setting [4]) is over 10 µg/mL.
On the same counts, the results for `COc1cc(C2C(C(=O)c3ccc(C)o3)=C(O)C(=O)N2CCN(C)C)cc(OC)c1OC` (centres unmarked) [Molecule 52, 1-[2-(dimethylamino)ethyl]-3-hydroxy-4-(5-methyl-2-furoyl)-5-(3,4,5-trimethoxyphenyl)-1,5-dihydro-2H-pyrrol-2-one] are 46% and over 10 µg/mL.
Taken in the same sequence, the figures for `COc1cccc(C2C(C(=O)c3ccc(C)o3)=C(O)C(=O)N2CCN2CCOCC2)c1` (centres unmarked) [Molecule 53, 3-hydroxy-5-(3-methoxyphenyl)-4-(5-methyl-2-furoyl)-1-[2-(4-morpholinyl)ethyl]-1,5-dihydro-2H-pyrrol-2-one] were 45.5% and over 10 µg/mL.
Regarding `CCOC(=O)C1=C(c2ccccc2)NC(SCC(=O)Nc2cccc(OC)c2)=C(C#N)C1c1ccco1` (centres unmarked) [Molecule 55, ethyl 5-cyano-4-(2-furyl)-6-({2-[(3-methoxyphenyl)amino]-2-oxoethyl}thio)-2-phenyl-1,4-dihydro-3-pyridine carboxylate], the inhibition at 10 µM in assay [1] (setting [3]) amounted to 42.5%. For the same compound, in assay [2] (setting [4]), the IC50 was about 5 µg/mL (≈ 9.7 µM).
